{
  "source": "paper PMC6709486",
  "about": "“Safety, Tolerability, Pharmacokinetics, and Drug Interaction Potential of SPR741, an Intravenous Potentiator, after Single and Multiple Ascending Doses and When Combined with β-Lactam Antibiotics in Healthy Subjects” (Antimicrobial Agents and Chemotherapy, 2019)",
  "set-up": "species or system human",
  "settings": "in vivo",
  "excerpt": "The SAD/MAD study was a phase 1, double-blind, placebo-controlled, multicohort trial. Part 1 used a SAD design according to which subjects received a single i.v. dose of SPR741. Part 2 used a MAD design in which subjects received multiple daily i.v. doses of SPR741 over a period of 14 days. The objective was to assess the safety/tolerability and PK of single and multiple ascending doses of SPR741. In the SAD phase, healthy volunteers were screened within 28 days prior to dosing. Subjects were admitted to the clinical facility on day −1 for up to 3 days. A single dose of SPR741 (or placebo) was administered on day 1. Following completion of all safety assessments and sampling for PK analyses, subjects were discharged on day 2. A follow-up visit occurred 5 to 7 days after day 1 dosing. In the MAD phase, all subjects were admitted to the clinical facility on day −1. Dosing commenced on the morning of day 1. Three doses were administered daily at approximately 8 (±0.5)-h intervals for a total of 14 consecutive days. The last dose was administered on the morning of day 14. Blood and urine samples were collected for assessment of PK parameters. Subjects were discharged on day 16 following completion of all PK sample collection and safety assessments, and a follow-up visit occurred 5 to 7 days after the last dose. In the SAD phase, subjects were randomized to one of eight cohorts that received doses of 5, 15, 50, 100, 200, 400, 600 or 800 mg of SPR741. Within each cohort, two subjects received placebo, and six received SPR741. In cohort 1, two subjects (sentinels) were dosed with SPR741 or placebo 48 h prior to dosing of the remaining subjects. The remaining six subjects were dosed only after no safety concerns were identified in the sentinel subjects. After each dose cohort had completed administration of study drug and evaluation, a Safety Monitoring Group reviewed blinded cumulative safety data (including day 5 to day 7 follow-up data) to confirm the safety and tolerability of SPR741. For both studies, safety assessments included clinical laboratory testing (hematology, coagulation, serum chemistry, renal chemistry, and urinalysis), vital signs (blood pressure, heart rate, body temperature, and respiratory rate), physical examination, and triplicate 12-lead ECGs. […] Adverse events were recorded at each study visit.",
  "note": "Peptide text beside a SMILES is read from it.",
  "data": [
    {"compound": "CC(=O)N[C@H](C(=O)N[C@H](CO)C(=O)N[C@H]1CCNC(=O)[C@H]([C@@H](C)O)NC(=O)[C@H](CCN)NC(=O)[C@H](CCN)NC(=O)[C@H](CC(C)C)NC(=O)[C@@H](Cc2ccccc2)NC(=O)[C@H](CCN)NC1=O)[C@@H](C)O", "note": "[SPR741] (HELM PEPTIDE1{[ac].T.[dS].[Dab].[Dab].[dF].L.[Dab].[Dab].T}$PEPTIDE1,PEPTIDE1,4:R3-10:R2$$$V2.0)", "values": [
      {"measurement": "TEAE classified as a renal or urinary disorder", "result": "No subjects"},
      {"measurement": "abnormal serum creatinine value", "result": "no subject"},
      {"measurement": "headache: No. (%) of subjects", "result": "4 (8%)"},
      {"measurement": "severe TEAE or serious adverse event", "result": "No subject"}
    ]}
  ]
}
